Each block holds one compound with its values, some of them ahead of it. Where a SMILES comes first, the peptide text is derived from it. Where no end group is shown, it is not given here. The star is where a group is joined. 5FAM = O=C1OC2(c3ccc(O)cc3Oc3cc(O)ccc32)c2ccc(C(=O)*)cc21
Tests used:
[1] = system: monolayer of MDCKII cells; type: cell-based, canine
From the text: The inventors identified cationic transport peptides that are capable of transcellular delivery of cargo across a monolayer of MDCKII cells grown on a porous membranes. One embodiment of the invention is a CL peptide, conjugated to a fluorescent dye 5-FAM (fluorescein), has a Papp value of (1.3±0.2)×10^−5 cm/s, which approaches the permeability rates of the fast-permeating molecules into the brain (Papp ≈10^−5 to 10^−4 cm/s). The CL peptide, conjugated to 5-FAM, enhanced 30-fold the rate of permeation of 5-FAM across the biological barrier. This is especially significant because MDCKII cells are virtually impermeable to 5-FAM (Papp=(4.1±0.6)×10^−7 cm/s) unless it is conjugated to the novel peptide. In addition, the CL peptide was able to deliver 5-FAM without compromising the junctional integrity of the model cell monolayer. Junctional integrity of the monolayer can be measured by transepithelial electrical resistance (TEER), which signifies resistance to the flow of ions across a cell monolayer. If the tight junctions between the cells are compromised, the TEER decreases.
FIG. 3 illustrates the % TEER change in the monolayer of MDCKII cells. Error bars represent SD with n=3 for all except LY, n=6. […] CL and [5-FAM] […] The data indicates the high permeability rates, observed for a transport peptide of the present invention, [5-FAM] […]

[2] = system: monolayer of MDCKII cells; assay: Transwell apparent permeability (Papp) across a monolayer of MDCKII cells grown on a porous membrane; type: in vitro ADME, canine
Protocol: (§1) The transport peptides of the present invention were identified by modifying peptide sequences and testing these peptides in a Transwell assay measuring in vitro transcellular transport. The Transwell assay consists of two chambers separated from each other by a permeable porous membrane. Cells, most commonly canine kidney epithelial MDCK cells or human intestinal epithelial Caco-2 cells, are grown on the membrane and represent a model biological barrier. The drug, or peptide of interest, is added to the input chamber and the concentration in the receiver chamber is measured after a period of time. The rate at which the drug or peptide permeates across the cells (and the porous membrane) is the rate of drug's concentration increase in the receiver chamber after a period of time. The rate can be calculated and expressed in terms of apparent permeability (Papp), which takes into account the input concentration, the rate of concentration increase in the receiver well, solution volume in the receiver well, and the area of the cell monolayer. Substances with low permeability generally have Papp values on the order of 10^−7 cm/s, and substances with high permeabilities generally have Papp values on the order of 10^−5 cm/s or higher. There are several published reports where the CPPs were investigated for their ability to deliver cargo transcellularly using a Transwell assay: Violini et al reported low permeabilities of 3.1×10^−8 cm/s and 7.4×10^−8 cm/s for TC-radiolabeled Tat 48-57 across Caco-2 and MDCK II cells, respectively.
(§2) The apparent permeabilities (Papp) of four compounds were determined across a monolayer of MDCKII cells, grown on a porous membrane. The four compounds were the following and are represented in FIGS. 2-3: 1) a transport peptide of the present invention, CL, attached to 5-Carboxyfluorescein (MW: 376.3) and designated as [5-FAM]CL peptide, 2) 5-Carboxyfluorescein attached to H3R8 ([5-FAM] H3R8 MW: 2,263.5 and the H3R8 peptide is shown in FIG. 4b) 3) 5-Carboxyfluorescein designated as 5-FAM and 4) Lucifer Yellow designated as LY (MW:457.25, Product Number L-453, Life Technologies). The following concentrations of [5-FAM] CL, [5-FAM] H3R8, 5-FAM, and LY compound were applied to the monolayer of MDCKII cells at approximately 0.2 μM, 0.4-0.9 μM, 4 μM, and 100 μM, respectively. The peptides and dyes were resuspended in HEPES- and glucose-supplemented 1×HBSS buffer. The permeability experiments were conducted for 1 hour at 37° C. Error bars represent standard error (SE). CL and H3R8 are conjugated to 5-FAM at the N-termini. H3R8 is based on oligoarginine CPPs that has been reported to deliver cargo intracellularly. LY is used to assess monolayer integrity (Papp≤10̂−6 cm/s verifies monolayer integrity). The permeability of LY is on the order of 10̂−7 cm/s and is thus consistent with literature values for a monolayer with good barrier properties. [5-FAM]

[3] = as above; type: in vitro ADME, canine; settings: MDCK
Protocol: as §1, §2

% TEER change after the permeability experiment [1]: did not significantly affect the TEER
Compound: KGRLLRLLRRRRRRRR [CL peptide]

Compound: O=C(O)c1ccc2c(c1)C(=O)OC21c2ccc(O)cc2Oc2cc(O)ccc21 [5-FAM, 5-Carboxyfluorescein]
apparent permeability (Papp) ([2]; monolayer of MDCKII cells on porous membrane, 1 hour at 37° C, HEPES- and glucose-supplemented 1×HBSS): (4.1±0.6)×10^−7 cm/s

Compound: HHHRRRRRRRR [H3R8]
ability to deliver 5-FAM across a monolayer of MDCKII cells ([2]; MDCK): not capable to deliver 5-FAM across a monolayer of MDCKII cells

Compound: CC(=O)N[C@@H](CCCCNC(=O)c1ccc2c(c1)C(=O)OC21c2ccc(O)cc2Oc2cc(O)ccc21)C(=O)NCC(=O)N[C@@H](CCCNC(=N)N)C(=O)N[C@@H](CC(C)C)C(=O)N[C@@H](CC(C)C)C(=O)N[C@@H](CCCNC(=N)N)C(=O)N[C@@H](CC(C)C)C(=O)N[C@@H](CC(C)C)C(=O)N[C@@H](CCCNC(=N)N)C(=O)N[C@@H](CCCNC(=N)N)C(=O)N[C@@H](CCCNC(=N)N)C(=O)N[C@@H](CCCNC(=N)N)C(=O)N[C@@H](CCCNC(=N)N)C(=O)N[C@@H](CCCNC(=N)N)C(=O)N[C@@H](CCCNC(=N)N)C(=O)N[C@@H](CCCNC(=N)N)C(N)=O [[5-FAM] CL] (Ac-K(5FAM)GRLLRLLRRRRRRRR-NH2; N-terminus and C-terminus assumed)
Papp [3]: 13 ×10⁻⁶ cm/s
enhancement of the rate of permeation (Papp) relative to 5-FAM ([2]; MDCK): 30 fold
% TEER change after the permeability experiment [1]: did not result in a significant % TEER decrease

apparent permeability (Papp) ([2]; MDCK): ~10̂−7 cm/s
Compound: Lucifer Yellow [LY]
